From publication PMC12531871, “Indole-2-carboxamides Optimization for Antiplasmodial Activity” (ACS Bio & Med Chem Au, 2025)
Converted amounts (≈) assume the structure as drawn. Where two headings read alike, the source gives them in different places.

Columns and labels:
[1] = Kinetic solubility at pH 7.4; format: physicochemical; details: phosphate-buffered saline, 25 °C, pH 7.4, aqueous buffer, kinetic from dmso stock; read-out: Kinetic solubility (Sol)
Description: Kinetic solubility assay was performed using UV–vis detection. […] The samples were filtered using a multiscreen solubility filter plate. The filtrate was diluted by 50% with MeCN. A five-point linearity curve was prepared in PBS/MeCN (1:1, v/v) at 200, 150, 75, 25, and 2.5 μM. Blank, linearity, and test samples (n = 2) were transferred to a UV-readable plate, and the plate was scanned for absorbance. Best-fit calibration curves were constructed using the calibration standards and used to determine the test sample solubility. The experiment was carried out in duplicate. Diethylstilbestrol, Haloperidol, and Diclofenac Sodium were used as reference standards.

[2] = Human liver microsome stability; format: in vitro ADME; details: human, pooled human liver microsomes, human microsomal intrinsic clearance; read-out: hMics, human microsome Clint
Description: A solution of the test compounds in phosphate buffer solution (1 μM) was incubated in pooled human or mouse liver microsomes (0.5 mg/mL) for 0, 5, 20, 30, 45, and 60 min at 37 °C in the presence and absence of an NADPH regeneration system (NRS). The tests were conducted by […], India. The reaction was terminated with the addition of ice-cold acetonitrile, containing a […] standard, at designated time points. The sample was centrifuged (4200g) for 20 min at 20 °C and the supernatant was diluted by half in water and then analyzed by LC-MS/MS. The % parent compound remaining, half-life (t 1/2) and clearance (CLint) were calculated using standard methodology. The experiment was carried out in duplicate. Verapamil, diltiazem, phenacetin, and imipramine were used as reference standards.

[3] = Rat hepatocyte stability; format: in vitro ADME; details: rat hepatocyte stability
Description: The reaction was terminated with the addition of ice-cold MeCN at designated time points. The samples were then centrifuged (4200 rpm) for 20 min at 20 °C, and the supernatant was half diluted in water and then analyzed using LCMS/MS. The % parent compound remaining, half-life (t 1/2), and clearance (CLint) were calculated using standard methodology. The experiment was carried out in duplicate. Diltiazem, 7-Ethoxy Coumarin, Propranolol, and Midazolam were used as reference standards.

[4] = test system: P. falciparum 3D7 strain (Pf3D7); test: Antiplasmodial activity against P. falciparum 3D7 blood-stage parasites (SYBR Green, 72 h); format: cell-based, Plasmodium falciparum; details: for IC50: Plasmodium falciparum; for Pf3D7-IC50 compared to 6a: regio-isomers compared to 6a
[5] = eLogD at pH 7.4, miniaturized shake flask method; format: physicochemical; details: 1-octanol/PBS (1:1, v/v), pH 7.4, pH 7.4, miniaturized shake flask method
Description: eLogD at pH 7.4 was determined using a miniaturized shake flask method. A solution of a presaturated mixture of 1-octanol and phosphate-buffered saline (PBS) (1:1, v/v) and the test compound (75 μM) was incubated at 25 °C with constant shaking (850 rpm) for 2h. After incubation, the organic and aqueous phases were separated, and samples of each phase were transferred to a plate for dilution. […] The samples were quantitated using LC-MS/MS. The experiment was carried out in duplicate. Propranolol, Amitriptyline, and Midazolam were used as reference standards.

[6] = test system: P. falciparum K1 strain; test: Antiplasmodial activity against resistant P. falciparum K1; format: cell-based; details: Plasmodium falciparum, 3D7 / K1; resistant K1, in parallel with 3D7; read-out: IC50^K1 ± SD
[7] = test system: P. falciparum Dd2 strain; test: Antiplasmodial activity against resistant P. falciparum Dd2; format: cell-based; details: Plasmodium falciparum, 3D7 / DD2; resistant Dd2, in parallel with 3D7; read-out: IC50^Dd2 ± SD
[8] = Resazurin assay for cytotoxicity in HepG2 cells; format: cell-based, human; details: human, HepG2 cells; HepG2 cell line, 72 h, resazurin
Description: HepG2 cells were trypsinized, counted, and distributed in a 96-well plate at a density of 30,000 cells per well (180 μL). The plate was incubated at 37 °C and 5% CO2 for 24 h. Following incubation, 20 μL of serial dilutions of the tested compounds were added to the wells, with concentrations ranging from 30 to 0.47 μM. The plate was incubated for an additional 72 h at 37 °C and 5% CO2. Untreated cells served as positive controls, while wells containing only medium were used as negative controls. Postincubation, microscopy was employed to determine the highest compound concentration for treatment results. […] Concentration–response curves were generated, and half-maximal inhibitory concentration (CC50) values were determined using nonlinear regression analysis.

[9] = 3D7, 72 h, 3D7 strain, 72 h, SYBR Green, read-out: Pf3D7-IC50
[10] = 3D7 / DD2, sensitive 3D7, in parallel with K1 and Dd2, read-out: IC50^3D7 ± SD

| Structure (SMILES) | solubility kinetic at 2 h [1] | microsomal CLint at 1 μM [2] | R Heps (Clint) [3] | IC50 [4, 9] | logD at 2 h [5] | further results |
| --- | --- | --- | --- | --- | --- | --- |
| O=C(c1cc2cc(F)ccc2[nH]1)N(Cc1cccnc1)CC1CCNC1 (centres unmarked) [Compound 6e, 5-Fluoro-N-(3-pyridylmethyl)-N-(pyrrolidin-3-ylmethyl)-1H-indole-2-carboxamide] | > 1000 µM | 7 µL/min/mg | 32 μL/min/10^6 | 8.8 ± 0.1 µM | -0.1 |  |
| Cc1c(C(=O)N(Cc2cccnc2)CC2CCNC2)[nH]c2ccc(Cl)cc12 (centres unmarked) [Compound 6g, 5-Chloro-3-methyl-N-(3-pyridylmethyl)-N-(pyrrolidin-3-ylmethyl)-1H-indole-2-carboxamide] |  |  |  | 5.8 µM |  | IC50 [6]: 6.3 ± 0.3 µM; IC50 [7]: 9 ± 0.7 µM; IC50 [4, 10]: 4.2 ± 0.5 µM |
| O=C(c1cc2cc(Cl)ccc2[nH]1)N(Cc1cccnc1)CC1CCOC1 (centres unmarked) [Compound 5r, 5-Chloro-N-(pyridin-3-ylmethyl)-N-((tetrahydrofuran-3-yl)methyl)-1H-indole-2-carboxamide] |  |  |  | > 10 µM |  |  |
| O=C(c1cc2cc(Cl)ccc2[nH]1)N(Cc1ccc(C(F)(F)F)nc1)CC1CCNC1 (centres unmarked) [Compound 6o, 5-Chloro-N-(pyrrolidin-3-ylmethyl)-N-[[6-(trifluoromethyl)-3-pyridyl]methyl]-1H-indole-2-carboxamide] | 883 µM (≈ 386 µg/mL) | 3 µL/min/mg | 10 μL/min/10^6 | 4.3 ± 0.2 µM | 1.5 |  |
| O=C(c1cccc(Cl)c1)N(Cc1cccnc1)CC1CCNC1 (centres unmarked) [Compound 6j, 3-Chloro-N-(pyridin-3-ylmethyl)-N-(pyrrolidin-3-ylmethyl)benzamide] |  |  |  | > 25 µM |  |  |
| O=C(c1cc2cccc(Cl)c2[nH]1)N(Cc1cccnc1)CC1CCNC1 (centres unmarked) [Compound 6c, 7-Chloro-N-(3-pyridylmethyl)-N-(pyrrolidin-3-ylmethyl)-1H-indole-2-carboxamide] | > 1000 µM | 4 µL/min/mg | 60 μL/min/10^6 | 2.2 ± 0.3 µM | 0.2 | IC50 [6]: 4.9 ± 0.6 µM; IC50 [7]: 8.2 ± 0.3 µM; IC50 [4, 10]: 2.3 ± 0.6 µM |
| CN1CCC(CN(Cc2cccnc2)C(=O)c2cc3cc(Cl)ccc3[nH]2)C1 (centres unmarked) [Compound 7a, 5-Chloro-N-[(1-methylpyrrolidin-3-yl)methyl]-N-(pyridin-3-ylmethyl)-1H-indole-2-carboxamide] | 190 µM (≈ 72.8 µg/mL) | 20 µL/min/mg | 28 μL/min/10^6 | 0.46 ± 0.05 µM | 1.6 | IC50 [6]: 1.2 ± 0.3 µM; IC50 [7]: 2.2 ± 0.3 µM; IC50 [4, 10]: 0.8 ± 0.2 µM |
| O=C(c1cc2cc(Cl)ccc2[nH]1)N(Cc1cccnc1)C[C@@H]1CCNC1 [6a (R), 5-Chloro-N-(3-pyridylmethyl)-N-[[(3R)-pyrrolidin-3-yl]methyl]-1H-indole-2-carboxamide] | 196 µM (≈ 72.3 µg/mL) | 10 µL/min/mg | 8 μL/min/10^6 | 1 ± 0.2 µM | 0.7 | CC50 at 72 h [8]: > 30 µM |
| O=C(c1cc2cc(Cl)ccc2[nH]1)N(Cc1cnccn1)CC1CCNC1 (centres unmarked) [Compound 6n, 5-Chloro-N-(pyrazin-2-ylmethyl)-N-(pyrrolidin-3-ylmethyl)-1H-indole-2-carboxamide] |  |  |  | > 10 µM |  |  |
| O=C(c1cc2cc(Cl)ccc2[nH]1)N(Cc1ccncc1)CC1CCNC1 (centres unmarked) [Compound 6l, 5-Chloro-N-(4-pyridylmethyl)-N-(pyrrolidin-3-ylmethyl)-1H-indole-2-carboxamide] |  |  |  | 12.8 ± 0.8 µM |  | Pf3D7-IC50 compared to 6a [4]: > 10 fold |
| CNCCN(CC1CCNC1)C(=O)c1cc2cc(Cl)ccc2[nH]1 (centres unmarked) [Compound 6q, 5-Chloro-N-[2-(methylamino)ethyl]-N-(pyrrolidin-3-ylmethyl)-1H-indole-2-carboxamide] |  |  |  | > 10 µM |  |  |
| O=C1CC(CN(Cc2cccnc2)C(=O)c2cc3cc(Cl)ccc3[nH]2)CN1 (centres unmarked) [Compound 5s, 5-Chloro-N-[(5-oxopyrrolidin-3-yl)methyl]-N-(3-pyridylmethyl)-1H-indole-2-carboxamide] |  |  |  | > 10 µM |  |  |
| O=C(c1nc2cc(Cl)ccc2[nH]1)N(Cc1cccnc1)CC1CCNC1 (centres unmarked) [Compound 6i, 5-Chloro-N-(3-pyridylmethyl)-N-(pyrrolidin-3-ylmethyl)-1H-benzimidazole-2-carboxamide] |  |  |  | > 10 µM |  |  |
| O=C(c1cc2cc(Cl)ccc2[nH]1)N(Cc1cccnc1)CC1CCNCC1 [Compound 6w, 5-Chloro-N-(4-piperidylmethyl)-N-(3-pyridylmethyl)-1H-indole-2-carboxamide] | > 1000 µM | < 3 µL/min/mg | 9 μL/min/10^6 | 0.9 ± 0.1 µM | 0.5 |  |
| O=C(c1cc2cc(Cl)ccc2[nH]1)N(Cc1ccccc1)CC1CCNC1 (centres unmarked) [Compound 6k, N-Benzyl-5-chloro-N-(pyrrolidin-3-ylmethyl)-1H-indole-2-carboxamide] |  |  |  | 6.7 ± 0.3 µM |  |  |
| O=C(c1c[nH]c2ccc(Cl)cc12)N(Cc1cccnc1)CC1CCNC1 (centres unmarked) [Compound 6h, 5-Chloro-N-(3-pyridylmethyl)-N-(pyrrolidin-3-ylmethyl)-1H-indole-3-carboxamide] |  |  |  | > 10 µM |  |  |
| CS(=O)(=O)c1ccc(CN(CC2CCNC2)C(=O)c2cc3cc(Cl)ccc3[nH]2)cn1 (centres unmarked) [Compound 6p, 5-Chloro-N-[(6-methylsulfonyl-3-pyridyl)methyl]-N-(pyrrolidin-3-ylmethyl)-1H-indole-2-carboxamide] |  |  |  | > 10 µM |  |  |
| CNCCN(Cc1cccnc1)C(=O)c1cc2cc(Cl)ccc2[nH]1 [Compound 6u, 5-Chloro-N-[2-(methylamino)ethyl]-N-(3-pyridylmethyl)-1H-indole-2-carboxamide] | 148 µM (≈ 50.7 µg/mL) | 20 µL/min/mg | 29 μL/min/10^6 | 1.8 ± 0.2 µM | 2.6 |  |
| O=C(c1cc2cc(Cl)ccc2[nH]1)N(Cc1cccnc1)C1CCNC1 (centres unmarked) [Compound 6v, 5-Chloro-N-(3-pyridylmethyl)-N-pyrrolidin-3-yl-1H-indole-2-carboxamide] | > 1000 µM | < 3 µL/min/mg | 17 μL/min/10^6 | 0.57 ± 0.07 µM | 0.9 |  |
| O=C(c1cc2cc(Cl)ccc2[nH]1)N(Cc1ccccn1)CC1CCNC1 (centres unmarked) [Compound 6m, 5-Chloro-N-(2-pyridylmethyl)-N-(pyrrolidin-3-ylmethyl)-1H-indole-2-carboxamide] |  |  |  | 14.1 ± 0.6 µM |  | Pf3D7-IC50 compared to 6a [4]: > 10 fold |
| O=C(c1cc2ccccc2[nH]1)N(Cc1cccnc1)CC1CCNC1 (centres unmarked) [Compound 6b, N-(3-Pyridylmethyl)-N-(pyrrolidin-3-ylmethyl)-1H-indole-2-carboxamide] |  |  |  | 8.3 ± 0.2 µM |  |  |
